Patent US9150608B2, “Neuro-protective compounds and their use” (Biotechnology Research Corp. Ltd., priority 2010, dated 2015)

What was measured:
[1] = system: cyclic AMP response (CRE) element; test: CRE-dependent transcription assay (luciferase); type: cell-based, rat; settings: hippocampal neurons 12DIV, 50 μM, 6 hours
Protocol: FIG. 41. GAG compounds enhance CRE-dependent transcription activity. GAG-C14 (a), GAG-C53 (b), GAG-C63 (c), GAG-C69 (d), GAG-C84 (e), GAG-C111 (f), GAG-C122 (g), GAG-C123 (h), and GAG-C129 (i) induce CRE-dependent transcriptional activity in cultured hippocampal neurons. On the day of cell seeding, hippocampal neurons were transfected with a firefly luciferase reporter plasmid containing cyclic AMP response (CRE)-element. The cells at 12 DIV were then treated with 50 μM of AG compounds for 6 hours. Data are mean±SEM (n=3-4), *=P<0.05, **=P<0.01, and ***=P<0.005 versus vehicle-treated cells (0 μM), student's t test.
Cultured hippocampal neurons were transfected with a firefly luciferase reporter plasmid containing a cyclic AMP response (CRE) element. At 12DIV, the cells were treated with 50 μM of compound for 6 hours, then CRE-dependent transcription activity was assayed by measuring luciferase levels.
Freshly isolated embryonic cortical neurons were transfected with a luciferase reporter gene (Cre-Luc) linked to CREB activation following the ACM lipofectamine method using Lipofectamine 2000, a cationic liposome based reagent (Invitrogen). […] Transfection was performed using 1 μL Lipofectamine 2000 and 0.4 μg DNA per well. Neurons were then treated with test samples for time periods of 6 hours. After treatment, the cells were washed with ice-cold DPBS and 100 μL of 1× luciferase lysis buffer (Promega) was added. The plates were placed in −20° C. to freeze the cells, after which they were thawed to facilitate lysis. The lysates were transferred onto white bottom plates and assayed for renilla luciferase using the luciferase assay kit (Promega). Increased CREB activation in the neurons leads to an enhanced luciferase production and this was quantified using a Promega GloMax™ 96 microplate luminometer. […] BDNF and rolipram were used as positive controls.

[2] = system: Aβ25-35-treated primary cortical neurons; test: Cortical neuron survival assay with amyloid-beta peptide insult (MTT); type: cell-based, rat; settings: for cell survival of cortical neurons treated with Aβ25-35 (MTT): 50 μM, except GAG-C69 at 30 μM, Aβ25-35 10 μM (FIG. 19)
Protocol: FIG. 4. […] After overnight incubation, the MTT assay was performed. Cell survival was calculated as a percentage compared to vehicle control (“CTL no Abeta”).
Exogenous addition of amyloid beta peptide (Aβ) initiates cell death of neuronal cultures via apoptosis.
The cells were then incubated with test samples and amyloid-beta peptide fragment 25-35 (Aβ, 10 μM, Sigma) in growth medium. A tetrazole, 3-(4,5-Dimethylthiazol-2-yl)-2,5-diphenyltetrazolium bromide (MTT, 5 mg/ml) was added to the medium at a ratio of 1:10 after 24-hr incubation. MTT is reduced by living cells into purple formazan and further solubilized in 20% SDS solution; therefore, the colored solution was measured by spectrophotometer and cell viability was quantified.

cleaved-caspase-3 = test: Caspase-3 expression in cortical neurons in the presence of amyloid-beta peptide (Western blot); type: cell-based, rat; settings: 10-50 μg/mL in the presence of Aβ25-35 (10 μM), overnight
Protocol: FIG. 5. Adelostemma gracillimum refined fraction inhibits caspase-3 production in primary cortical neurons induced by Aβ. Primary cortical neuron cultures (7DIV) were treated with various concentrations of AG-0 (10-50 μg/mL) in the presence of Aβ25-35 (10 μM). Proteins were extracted after overnight incubation and Western blot analysis was performed. Blots were probed with antibodies against caspase-3 and ERK protein. Staurosporine (STS, 10 μM) was used as a positive control, while DMSO served as the vehicle control.
The cells were then incubated with test samples and amyloid-beta peptide fragment 25-35 (Aβ, 10 uM, Sigma) in growth medium.

[3] = system: NMDA receptor-induced excitotoxicity in primary cortical neuronal cells; test: NMDA survival assay (LDH release)
Protocol: Embryonic rat cortical neurons (11 DIV) were pre-treated with various concentrations of AG—0 (0.1 -30 μg/mL) and then co-incubated with NMDA (20 μM). After 20 min, the medium was replaced with fresh medium, and after overnight incubation lactate dehydrogenase (LDH) released into the medium was measured. Cell death was calculated as a percentage compared to solvent control (“CTL without NMDA”). Assays were conducted in duplicate and repeated at least twice. *=P<0.05.
Cortical neurons were plated on 48-well plate (Nunc) at a density of 1.1×10^5 cells per well and cultured for 11-12 days (11-12 DIV). Neurons were pre-treated with the test compounds for 2 hours prior to N-Methyl-D-Aspartate (NMDA, Sigma) or glutamate (MSG, Sigma) treatment. Briefly, the neurons were rinsed with Locke's solution (5 mM potassium chloride, 128 mM sodium chloride, 2.7 mM calcium chloride, 1 mM di-sodium hydrogen orthophosphate, 5 mM HEPES and 10 mM glucose in Milli-Q water) without Mg^2+, followed by incubation in Locke's solution with addition of glycine (0.1 μM) for 15 minutes. After the incubation, the neurons were co-treated with the test compound (dissolved in Locke's plus glycine solution) and NMDA (20 μM) or glutamate for 20 min. Neurons were then rinsed with Locke's solution containing Mg^2+ and replaced with fresh growth medium. Cell death was assayed and quantified using the lactate dehydrogenase release assay (Cytotoxicity Detection Kit, Roche). Data was compared to a DMSO vehicle control and represented in mean±SEM. The student t-test was used for statistical analysis.

NMDA receptor = test: Whole-cell patch clamp; type: cell-based, rat; settings: hippocampal neurons, −70 mV
Protocol: FIG. 31. GAG-C73 inhibits NMDA-induced current in hippocampal neurons. The effects of GAG-C73 on NMDA-activated currents in rat hippocampal neurons (11DIV) were examined using whole-cell patch clamp studies. Addition of NMDA induced depolarization and initiated an inward current in pyramidal cells. A. Examples of NMDA-activated currents before, during, and after application of GAG-C73 (30 μM) are shown. Horizontal bars denote GAG-C73 application. B-C. […] DMSO was used as a solvent control. The concentration of glycine was 0.1 μM, and membrane potential was held at −70 mV. n=10; three independent experiments were performed. *=P<0.05.
The NMDA receptor is a gated ion channel, which allows inflow of current during a nerve impulse. Antagonists to the receptor would prevent the inflow of current.
Hippocampal neurons were plated onto PDL-coated 35 mm dishes (NUNC) at a density of 3×10^5 cells per plate. Half of the medium was changed with NB, B27 and […] L-glutamine every 2 to 3 days. On day 12 in vitro (12DIV), whole-cell patch clamp study was performed. […] Holding potential of patched cells was kept at −70 mV and currents were recorded using Axopatch-200B amplifier (Axon Instruments, USA). […] Data was analyzed by pClamp9 software and percentage of inhibition on NMDA-induced current was' represented in comparison to a DMSO solvent control.

[4] = system: glutamate-induced excitotoxicity in cortical neurons; test: Glutamate survival assay (LDH release); type: cell-based, rat; settings: 30 μM; glutamate 10-200 μM, all concentrations examined
Protocol: FIG. 34. GAG-C73 decreases primary neuron cell death induced by high doses of glutamate. Cortical neurons were incubated with GAG-C73 (30 μM) or DMSO control for 2 hrs, followed by co-treatment with differing concentrations of glutamate (10-200 μM) for 20 min. LDH release into the medium was then measured.
Glutamate is the physiological neurotransmitter that activates NMDA receptors. However, excess amounts of glutamate can result in excitotoxicity and potential cell death. Survival assays were conducted to determine the ability of GAG-C73 to effectively protect neuronal cells from glutamate-induced excitotoxicity.

[5] = system: phosphorylated ERK, CREB, Akt, P38, MEK in cortical neurons; test: Western blot detection of signaling proteins in cortical neurons; type: cell-based, rat; settings: cortical neurons 7DIV, 0.1-10 μM, 15 min (FIGS. 16, 18, 20)

| SMILES | CRE-dependent transcription activity (luciferase) [1] | cell survival of cortical neurons treated with Aβ25-35 (MTT) [2] | survival of neurons against Aβ insult (MTT) ([2]; various concentrations, Aβ25-35 10 μM) | expression level of cleaved-caspase-3 (17 kDa, active form) (cleaved-caspase-3) | cell death compared to the DMSO control (LDH) ([3]; 30 μM, NMDA 5-100 μM, at toxic dosages of NMDA) | neuronal survival following NMDA treatment (LDH) ([3]; 30-50 μM pre-treated 2 hours, NMDA 20 min (FIG. 17)) | cell death compared to the DMSO control (LDH) ([3]; varying concentrations pre-treated 2 hrs, NMDA 20 μM) | NMDA-induced current (peak and plateau) (NMDA receptor; 30 μM co-treatment with NMDA) | NMDA-induced current with increasing doses (NMDA receptor) | cell death compared to the DMSO control (LDH) [4] | ERK phosphorylation [5] |
| --- | --- | --- | --- | --- | --- | --- | --- | --- | --- | --- | --- |
| C/C=C/c1ccc2c(c1)OC(c1ccc(O)c(OC)c1)C(C)O2 (stereo not drawn) [GAG-C69, 3-methoxyl-4-hydroxyl-(7′-E)-5′7-epoxy-8,4′-oxyneolignane-7′ en] | enhances CRE-dependent transcription | promoted cell survival | increases the survival of neurons against Aβ insult comparable to control levels | significantly decreased to levels comparable to that without Aβ | – | – | – | – | – | – | – |
| C=C(C)[C@@H]1CCC2(C(=O)O)CC[C@]3(C)C(=CCC4[C@@]5(C)CCC(O)[C@@](C)(CO)C5CC[C@]43C)C12 (stereo partly drawn) [GAG-C73, 3,23-dihydroxyl-12(13)-en-Lup-20(29)-en-28-oic acid] | – | promoted cell survival | – | – | significant reduction in cell death | promoted neuronal survival | significant dose-dependent reduction in cell death | reduced the current induced by NMDA, for both peak and plateau currents | further decreased the NMDA-induced current | significant reduction in cell death | induced ERK phosphorylation |
